Key:
[1] = tested on: U138-MG human glioma cell; assay: Cell proliferation analysis (MTT); assay type: cell-based; conditions: 10 µM, two days, MTT; for activity at 10 µM / inhibition at 10 µM: Homo sapiens, 48 h
Protocol: (§1) U87-MG and U138-MG human glioma cell, were incubated with 10% fetal bovine serum (FBS) (Gibco, 10500-064), 1% L-glutamine (Gibco, 25030-024), in a humidified incubator with 5% CO2 at 37 °C. The cells were contained in DMEM High Glucose (Gibco, 41966-029) supplemented with 1% penicillin-streptomycin (P/S) (Gibco 15140-122) solution. The cytotoxic effects of the target compounds on U87-MG and U138-MG cell lines were assessed using the MTT (Thiazolyl Blue Tetrazolium Bromide) method. 7×10^3 cells were seeded into a 96-well plate in 100 µl DMEM High Glucose 10% FBS and 1% P/S. 24 hours after cell incubation, each target compound was added at a dose of 10 µM and the drug treatment was carried out for two days. After the incubation period, 10 µL of MTT solution was added to each well (5 mg/ml in PBS). After 2 hours, MTT solutions were removed from the wells. Then, 100 µl DMSO was added, and mixed to dissolve the formazan crystals. Cell proliferation was analysed by measuring the absorbance of dissolved formazan at a wavelength of 570 nm.
(§2) IC50 values were determined using the same method as above wherein the cells were treated with the target compounds at different doses.

U87-MG human glioma cell = assay: Cell proliferation analysis (MTT); assay type: cell-based; conditions: for activity at 10 µM / inhibition at 10 µM: Homo sapiens, U-87 MG, 48 h; for activity at 10 µM / inhibition at 10 µM / Cell Proliferation (%): two days, MTT, 10 µM
Protocol: as §1, §2

Compound | activity at 10 µM [1] [%] | inhibition at 10 µM [1] [%] | activity at 10 µM (U87-MG human glioma cell) [%] | inhibition at 10 µM (U87-MG human glioma cell) [%] | Cell Proliferation (%) [1] [%] | Cell Proliferation (%) (U87-MG human glioma cell) | top 5 target compounds whose treatment resulted in the lowest proliferation (U87-MG human glioma cell; ranking)
Nc1ncc(/C=N/NC(=O)COc2ccc3c(c2)CCC(=O)N3)cn1 [TR-G076, (E)-N'-((2-aminopyrimidin-5-yl)methylene)-2-((2-oxo-1,2,3,4-tetrahydroquinolin-6-yl)oxy)acetohydrazide] | 92 | 8 | 97 | 3 |  |  | 
CCOC(=O)COc1ccc2c(c1)CCC(=O)N2 [TR-G012, ethyl 2-((2-oxo-1,2,3,4-tetrahydroquinolin-6-yl)oxy)acetate] | 85 | 15 | 71 | 29 |  |  | 
O=C1CCc2cc(OC(=O)Cc3ccccc3)ccc2N1 [TR-G007, 2-oxo-1,2,3,4-tetrahydroquinolin-6-yl 2-phenylacetate] | 82 | 18 | 91 | 9 |  |  | 
O=C1CCc2cc(OCCCN3C(=O)c4ccccc4C3=O)ccc2N1 [TR-G049, 2-(3-((2-oxo-1,2,3,4-tetrahydroquinolin-6-yl)oxy)propyl)isoindoline-1,3-dione] |  | 37 |  | 24 | 63 | 76 | 
O=C1CCc2cc(OC(=O)CCl)ccc2N1 [TR-G016, 2-oxo-1,2,3,4-tetrahydroquinolin-6-yl 2-chloroacetate] | 95 | 5 | 78 | 22 |  |  | 
O=C1CCc2cc(OCC3CC(c4ccc(F)cc4)=NO3)ccc2N1 (stereo not drawn) [TR-G051, 6-((3-(4-fluorophenyl)-4,5-dihydroisoxazol-5-yl)methoxy)-3,4-dihydroquinolin-2(1H)-one] | 67 | 33 | 79 | 21 |  |  | 
O=C1CCc2cc(OCCCCCCOC3CCCCO3)ccc2N1 (stereo not drawn) [TR-G031, 6-((6-((tetrahydro-2H-pyran-2-yl)oxy)hexyl)oxy)-3,4-dihydroquinolin-2(1H)-one] | 80 | 20 | 72 | 28 |  |  | 
CCN(C)C(=O)Oc1ccc2c(c1)CCC(=O)N2 [TR-G037, 2-oxo-1,2,3,4-tetrahydroquinolin-6-yl ethyl(methyl)carbamate] | 65 | 35 | 91 | 9 |  |  | 
O=C1CCc2cc(OCc3cn(Cc4ccc(F)cc4)nn3)ccc2N1 [TR-G086, 6-((1-(4-fluorobenzyl)-1H-1,2,3-triazol-4-yl)methoxy)-3,4-dihydroquinolin-2(1H)-one] | 79 | 21 | 79 | 21 |  |  | 
C=Cc1ccc(CN2C(=O)CCc3cc(OCCCCc4nnnn4C4CCCCC4)ccc32)cc1 [TR-G107, 6-(4-(1-cyclohexyl-1H-tetrazol-5-yl)butoxy)-1-(4-vinylbenzyl)-3,4-dihydroquinolin-2(1H)-one] | 103 | -3 | 47 | 53 |  |  | top 5
Cc1ccccc1NC(=O)Oc1ccc2c(c1)CCC(=O)N2 [TR-G134, 2-oxo-1,2,3,4-tetrahydroquinolin-6-yl-o-tolylcarbamate] |  | 27 |  | 30 | 73 | 70 | 
COc1ccc(NC(=O)COc2ccc3c(c2)CCC(=O)N3)cc1OC [TR-G077, N-(3,4-dimethoxyphenyl)-2-((2-oxo-1,2,3,4-tetrahydroquinolin-6-yl)oxy)acetamide] | 88 | 12 | 88 | 12 |  |  | 
O=C(COc1ccc2c(c1)CCC(=O)N2)N/N=C1\C(=O)Nc2ccccc21 [TR-G038, (Z)-2-((2-oxo-1,2,3,4-tetrahydroquinolin-6-yl)oxy)-N'-(2-oxoindolin-3-ylidene)acetohydrazide] | 95 | 5 | 71 | 30 |  |  | 
COc1ccc(C(=O)Oc2ccc3c(c2)CCC(=O)N3)c(OC)c1 [TR-G009, 2-oxo-1,2,3,4-tetrahydroquinolin-6-yl 2,4-dimethoxybenzoate] | 87 | 13 | 72 | 28 |  |  | 
O=C1CCc2cc(OC(=O)Nc3ccccc3)ccc2N1 [TR-G131, 2-oxo-1,2,3,4-tetrahydroquinolin-6-yl phenylcarbamate] | 54 | 46 | 79 | 21 |  |  | 
O=C1CCc2cc(OCC3CC(c4c(F)cccc4Cl)=NO3)ccc2N1 (stereo not drawn) [TR-G150, 6-((3-(2-chloro-6-fluorophenyl)-4,5-dihydroisoxazol-5-yl)methoxy)-3,4-dihydroquinolm-2(1H)-one] | 79 | 21 | 97 | 3 |  |  | 
O=C1CCc2cc(OCCCCc3nnnn3C3CCCCC3)ccc2N1CCCc1ccccc1 [TR-G106, 6-(4-(1-cyclohexyl-1H-tetrazol-5-yl)butoxy)-1-(3-phenylpropyl)-3,4-dihydroquinolin-2(1H)-one] | 66 | 35 | 73 | 27 |  |  | 
CC(C)CCn1cc(COc2ccc3c(c2)CCC(=O)N3)nn1 [TR-G052, 6-((1-isopentyl-1H-1,2,3-triazol-4-yl)methoxy)-3,4-dihydroquinolin-2(1H)-one] | 52 | 48 | 85 | 15 |  |  | 
O=C1CCc2cc(OC(=O)Nc3ccccc3C(F)(F)F)ccc2N1 [TR-G137, 2-oxo-1,2,3,4-tetrahydroquinolin-6-yl (2-(trifluoromethyl)phenyl)carbamate] | 60 | 40 | 73 | 27 |  |  | 
O=C(OCCCCOc1ccc2c(c1)CCC(=O)N2CCCCOC(=O)c1ccccc1)c1ccccc1 [TR-G013A, 4-(6-(4-(benzoyloxy)butoxy)-2-oxo-3,4-dihydroquinolin-1(2H)-yl)butyl benzoate] | 53 | 47 | 46 | 54 |  |  | 
O=C1CCc2cc(OCC(=O)Oc3ccccc3)ccc2N1 [TR-G004, phenyl 2-((2-oxo-1,2,3,4-tetrahydroquinolin-6-yl)oxy)acetate] | 88 | 12 | 73 | 27 |  |  | 
O=C(COc1ccc2c(c1)CCC(=O)N2)N/N=C/c1ccccn1 [TR-G059, (E)-2-((2-oxo-1,2,3,4-tetrahydroquinolin-6-yl)oxy)-N'-(pyridin-2-ylmethylene)acetohydrazide] | 81 | 20 | 79 | 21 |  |  | 
COc1ccc(/C=N/NC(=O)COc2ccc3c(c2)CCC(=O)N3)cc1 [TR-G026, (E)-N'-(4-methoxybenzylidene)-2-((2-oxo-1,2,3,4-tetrahydroquinolin-6-yl)oxy)acetohydrazide] | 90 | 10 | 92 | 8 |  |  | 

Reference: patent EP4644375A1, “SUBSTITUTED HYDROQUINOLINES FOR THE TREATMENT OF GLIOBLASTOMA MULTIFORME” (Molius Saglik Teknolojileri Anonim Sirketi, priority 2024, dated 2025)
